Assay results: patent US6627441B1, “Increasing levels of growth regulator and/or water stress during embryo development” (priority 1998, dated 2003)

How the values were obtained:
Format in all cases: cell-based
[1] = tested on: white spruce somatic embryos; assay: Effect of water stress and ABA on somatic embryo moisture contents (Example 4); conditions: treatment 2: mannitol 290, 400, 540 mmol/kg with ABA 20, 30, 40 μM; six weeks
Experimental: Water potentials were measured for liquid media containing various osmotica at a range of concentrations, which were plotted on a curve. Determinations were made using a vapour pressure osmometer (Wescor). Moisture content determinations were done using methods described previously by Attree et al. (U.S. Pat. No. 5,464,769).
Embryos were cultured on medium containing 3% sucrose and ABA, with additional osmoticum adjusted to vary water potentials, as shown in Table 4.
Embryos were cultured for six weeks and moisture contents determined. Determinations for each treatment were made weekly, with three replicates per treatment. 50 embryos per replicate were used. In some instances, particularly for the control with low osmoticum, insufficient embryos were produced. In these cases, the minimum number of embryos used per replicate was thirty. For weeks 0 to 2, the embryos were too small to be used for moisture content determinations, so whole tissue was used instead.

[2] = tested on: somatic seedlings of white spruce; assay: Germination and shoot development after replacing PEG with alternative osmotica (Example 8); conditions: for shoot development frequency of somatic seedlings: after 4-5 weeks growth
Experimental: (§1) This experiment was carried out to observe the effect of replacing the non-permeating water stress with a permeating water stress during development. Thus, immature somatic embryos from suspension culture were precultured in 1/20 strength hormone medium for one week then transferred to maturation medium containing 3% sucrose, 20 μM ABA and adjusted to 290 mmol/kg with PEG. They were transferred to fresh medium weekly in which the osmoticum and ABA was increased. For the control (treatment 1) the PEG concentration was increased (as outlined in Example 4, treatment 6). In treatment 2, the PEG remained constant and water potential was increased by adding lactose (treatment 2). In treatment 3, PEG was increased after the first week, then lactose was added at the third and fourth weeks, and in the fifth week PEG was removed and replaced completely with lactose. Treatment 4 was the same as treatment 3, except that sucrose was used in place of lactose. Treatment 5 was similar to treatment 3, except that PEG was replaced with lactose earlier so that PEG was replaced totally by lactose by the fourth week. Total development time was six weeks.
White spruce somatic embryos were produced using all treatments described in Example 6 (replacement of PEG with sucrose or lactose). […] Embryos were desiccated for two weeks, then rehydrated and visually selected for subsequent transfer to fresh medium. The embryos from all treatments germinated to produce root and epicotyl elongation (i e., 100% germination). Subsequent growth differed amongst the treatments. After four to five weeks growth, 87% of somatic seedlings from treatment 1 had visible new shoot growth (new needles). All other treatments had much lower shoot emergence frequencies.

[3] = tested on: Douglas fir somatic embryos; assay: Douglas fir somatic embryogenesis (Example 11); conditions: replacing PEG at week 5 or week 6; compared with PEG being maintained
Experimental: Douglas fir may be cultured using sucrose at 1-3% (30-90 mM), however, other sugars may be used at the same concentrations. Maintenance cultures usually contain the sugar at about 1%. […] Douglas fir embryogenic tissue was induced from developing seed. Embryos contained in megametophytes were induced and maintained on TX maintenance medium having 1% sucrose. This medium contained 0.2 g/L glutamine and 0.2 g/L casein hydrolysate. Selected embryogenic tissue was subcultured biweekly per petri dish. Medium was solidified with 2.4 g/L PHYTAGEL™. This medium contained 9 μM 2,4-D and 4.5 μM BA. Liquid suspension cultures were maintained in flasks containing 50 mL liquid maintenance medium Liquid cultures were subcultured weekly. For maturation, the embryogenic suspension was first precultured in liquid medium without growth regulators, and subcultured weekly. The water potential of the maintenance cultures and precultures remained below 150 mmol/kg. After one or two weeks of preculture, 1 to 2 g of filtered tissue was resuspended in 10 mL fresh medium and 0.75 mL of the new suspension was pipetted onto the solid maturation medium. Maturation medium contained calcium chloride at 105 mg/L, and ammonium nitrate was included at 400 mg/L. Glutamine was used at 0.8 g/L for the first week then reduced to 0.1 g/L thereafter. Casein hydrolysate was maintained at 0.2 g/L. The sugar was increased to 2-3% and the medium was solidified with Phytagel at 2.8 to 3.4 g/L. ABA was added into the medium after filter sterilization. The maturation medium also contained PEG. The ABA and water potential were raised following the schedule in the following table.
In some instances, the PEG was reduced and the water potential made up to the desired level using lactose at 0% in the first week, 1% in week 2, 4% in weeks 3 and 4, 5% in week 5, and 6% in week 6. Although this allowed a firmer gel to set than otherwise would occur with PEG alone, it may not provide any other benefit over full PEG (see, for example, Table 8), particularly if liquid culture medium is used. […] The embryos were desiccated and stored in a freezer as described for spruce, or germinated directly without desiccation. For germination, embryos were placed on half-strength basal medium containing 0.4 g/L calcium nitrate, 0.2 g/L ammonium nitrate, no hormones and 2% sucrose and 0.6% agar. These were grown in the light.

[4] = tested on: white spruce somatic embryos; assay: PEG replacement during development, maturation frequency (Example 6); conditions: treatment 2: PEG constant, lactose added from the third week; versus PEG control; FIG. 2
Experimental: as §1
Each treatment comprised nine replicates. The number of embryos per treatment were scored and means prepared. […] The trend was that as PEG was replaced by permeating osmotica, the maturation frequency declined slightly. […]

| Compound | greening of embryos [1] | shoot development frequency of somatic seedlings ([2]; Treatment 4: 13% sucrose mid replacement) | appearance of embryos before desiccation ([2]; treatment 4 of Example 6 (PEG replaced with sucrose)) | embryo development result [3] | maturation frequency [4] | shoot development frequency of somatic seedlings ([2]; Treatment 2: 6.6% lactose, partial PEG replacement) | shoot development frequency of somatic seedlings ([2]; Treatment 3: 10% lactose, mid replacement) | shoot development frequency of somatic seedlings ([2]; Treatment 5: 10% lactose early replacement) | appearance of embryos before desiccation ([2]; treatment 5 of Example 6 (PEG replaced early with lactose)) |
| --- | --- | --- | --- | --- | --- | --- | --- | --- | --- |
| OC[C@@H](O)[C@@H](O)[C@H](O)[C@H](O)CO [mannitol] | greening was prevented | – | – | – | – | – | – | – | – |
| OC[C@H]1O[C@@](CO)(O[C@H]2O[C@H](CO)[C@@H](O)[C@H](O)[C@H]2O)[C@@H](O)[C@@H]1O [sucrose] | – | 1.6% | very slight splitting of the root cap region | very good results | – | – | – | – | – |
| OC[C@H]1O[C@@H](O[C@H]2[C@H](O)[C@@H](O)C(O)O[C@@H]2CO)[C@H](O)[C@@H](O)[C@H]1O (stereo partly shown) [lactose] | – | – | – | very good results | slight decline | 1.5% | 76.5% | 49.2% | very slight splitting of the root cap region |
